# Patent US11974981B2, “Methods and compositions for treating endometriosis and endometriosis associated symptoms” (The Board of Trustees of the Leland Stanford Junior …, priority 2017, dated 2024)
# “Also recorded” adds a separate entry of the source.
# What was measured:
# [1] = test system: female Sprague-Dawley rats; experiment: acetaldehyde-induced vaginal hyperalgesia, escape response to vaginal balloon distention; type: in vivo, rat; settings: Alda-1 1 mg/kg i.p. alone, in the absence of the noxious stimulus
# Source text: FIG. 1A-1C. Alda-1 mitigates acetaldehyde-induced vaginal hyperalgesia in rats. FIG. 1A Five female Sprague-Dawley rats initially weighing 150-175 g were trained over a period of ˜4 weeks to terminate an escape response from the noxious stimuli produced by a balloon inflated in the vagina. Top image: Rats trained to be accustomed to the testing chamber. Bottom image: The escape response assessed by the rat poking its head into a tube. This response in turn breaks an infrared beam and causes the vaginal balloon to deflate. […] The shaded area is calculated as the area under the curve. n=5 rats/volume FIG. 1C Histogram of vaginal escape response expressed as the area under the curve calculated using standard trapezoid methods. […]
# Alda and endonetriosis: Although rodent inflammatory pain models such as carageenan and CFA may represent some aspects of endometriosis, there is a validated rat model of endometriosis-associated pain, which produces signs and painful symptoms similar to those in women (S. McAllister, K. McGinty, D. Resuehr, K. Berkley. Endometriosis-induced vaginal hyperalgesia in the rat: Role of the ectopic growths and their innervation. Pain. 147: 255-264 (2009)). […] The rat is then monitored to determine an escape response, which is assessed by the rodent breaking an infrared beam with its nose; this, in turn, causes the inflated balloon in the vagina to deflate (FIG. 1A). […]
# wild type C57/BL6 mice = experiment: mouse surgical model of endometriosis, endometrial cyst area, wild type mice; type: in vivo; settings: vs DMSO
# Source text: (§1) FIG. 2A-2C. Relative to wild type mice, ALDH2*2 mice develop larger endometrial cysts by 3 days after endometriosis surgery. FIG. 2A In a mouse surgical model of endometriosis, three (2 mm×2 mm) uterine horn auto transplants are sutured onto cascading mesenteric arteries which in turn since located outside the uterus develop cysts in the abdomen. FIG. 2B Female wild type (C57/BL6) and ALDH2*2 knock-in mice on the same genetic background 8-10 weeks of age were induced with endometriosis and sacrificed 1, 3, or 28 days later. Endometrial cysts were collected and cyst area was measured (length×width). FIG. 2C Average cyst area was calculated for each group (wild type: blue, ALDH2*2: red) of mice at day 1, 3, and 28. Data are presented as mean±SEM, n=6 mice/group.
# (§2) FIG. 3A-3D. Alda-1 reduces endometrial cyst size 3 days and 28 days after endometriosis induction. FIG. 3A. […] FIG. 3B. […]
# (§3) Briefly, mice were anesthetized with isoflurane (1-3%) and an off-midline (left side) incision made through the skin and muscle layer to expose the pelvic and abdominal organs. […] On day 1, 3, or 28 after endometriosis induction, mice were sacrificed, endometrial cyst length and width measured to calculate cyst area, and then the average cyst area per group determined.
# [2] = test system: homozygous ALDH2*2 knock-in mice; experiment: mouse surgical model of endometriosis, endometrial cyst area, ALDH2*2 knock-in mice; type: in vivo; settings: ALDH2*2 mice, vs DMSO
# Source text: as §1, §2, §3
# [3] = test system: rodent models of inflammatory pain; settings: earlier work of the inventors; cited from earlier work
# [4] = Alda-1 5 mg/kg subcutaneous Alzet pump for 3 days
structure (smiles),measurement,setting,value
"O=C(NCc1ccc2c(c1)OCO2)c1c(Cl)cccc1Cl [Alda-1, N-(1,3-benzodioxol-5-ylmethyl)-2,6-dichlorobenzamide]","vaginal escape response (area under the curve), effect of compound alone",[1],No effect
same,average endometrial cyst area,wild type C57/BL6 mice; [4],significant reduction
same,average endometrial cyst area,"wild type C57/BL6 mice; Alda-1 5 mg/kg subcutaneous Alzet pump for 28 days, 5 mg/kg",significant reduction; also recorded: significantly reduced
same,average endometrial cyst area,[2]; [4],significant reduction; also recorded: significantly reduced
same,average endometrial cyst area,[2]; Alda-1 5 mg/kg subcutaneous Alzet pump for 28 days,significant reduction; also recorded: significantly reduced
same,pain thresholds,[3],increases pain thresholds
